We go through nine compounds from patent US20260092071A1, “COMPOUNDS AND COMPOSITIONS AS SMARCA2/4 DEGRADERS AND USES THEREOF” (REGENTS OF THE UNIVERSITY OF MICHIGAN, priority 2022, published 2026).

In general, DC50 refers to the concentration giving 50% degradation. Broadly, the Dmax is the greatest extent of degradation seen.

One assay deals with SMARCA4 (Homo sapiens, UniProt P51532). The assay is described as follows: HiBiT assay for protein degradation, Hela SMARCA4-HiBiT cells (A series). The assay is classed as cell-based. On the set-up: fuse HiBiT to the carboxy terminus of SMARCA2 (Promega CS302365) or SMARCA4 (Promega CS3023225); host or cells: HeLa (CRISPR/Cas9 HiBiT knock-in). The conditions noted are these: for DC50: read-out: SMARC A4 Hela HiBit DC50. The method in brief:
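SMARCA4 degradation was measured in HeLa cells in which HiBiT had been knocked into the SMARCA4 carboxy terminus via CRISPR/Cas9 (Promega CS3023225). Cells were maintained in DMEM with FBS and penicillin-streptomycin. At the end of treatment, SMARCA4 levels were read by lytic HiBiT luminescence (Nano-Glo®, Promega N3050), and data were analyzed with GraphPad Prism.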
(In general: The HiBiT peptide binds its large partner to form an active luciferase.)

A further assay deals with SMARCA2 (Homo sapiens, UniProt P51531). The assay is described as follows: HiBiT assay for protein degradation, Hela SMARCA2-HiBiT cells (A series). The assay is classed as cell-based. On the set-up: Hela cells were genetically modified via CRISPR/Cas9 to fuse HiBiT to the carboxy terminus of SMARCA2; host or cells: HeLa (CRISPR/Cas9 HiBiT knock-in). To be noted: for DC50: read-out: SMARC A2 Hela HiBit DC50; for Dmax: read-out: SMARC A2 Hela HiBit Dmax (%). Put shortly: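 SMARCA2 degradation was measured in HeLa cells whose endogenous SMARCA2 carries a carboxy-terminal HiBiT tag introduced by CRISPR/Cas9 (Promega CS302365). Cells were maintained in DMEM with FBS and penicillin-streptomycin. SMARCA2 levels were read at the end of the experiment by Nano-Glo® HiBiT lytic luminescence (Promega N3050) and analyzed in GraphPad Prism.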

[1] abbreviates: Hela SMARCA4-HiBiT cells, 24 hours treatment.
[2] abbreviates: Hela SMARCA4-HiBiT cells, 24 hours treatment, read-out: SMARC A4 Hela HiBit Dmax.
The mark [3] stands for this setting: Hela SMARCA2-HiBiT cells, 24 hours treatment.

Structures are written as SMILES. Like-named read-outs stand apart in the source and are kept apart here.

Sequence of SMARCA2 (P51531 whole entry): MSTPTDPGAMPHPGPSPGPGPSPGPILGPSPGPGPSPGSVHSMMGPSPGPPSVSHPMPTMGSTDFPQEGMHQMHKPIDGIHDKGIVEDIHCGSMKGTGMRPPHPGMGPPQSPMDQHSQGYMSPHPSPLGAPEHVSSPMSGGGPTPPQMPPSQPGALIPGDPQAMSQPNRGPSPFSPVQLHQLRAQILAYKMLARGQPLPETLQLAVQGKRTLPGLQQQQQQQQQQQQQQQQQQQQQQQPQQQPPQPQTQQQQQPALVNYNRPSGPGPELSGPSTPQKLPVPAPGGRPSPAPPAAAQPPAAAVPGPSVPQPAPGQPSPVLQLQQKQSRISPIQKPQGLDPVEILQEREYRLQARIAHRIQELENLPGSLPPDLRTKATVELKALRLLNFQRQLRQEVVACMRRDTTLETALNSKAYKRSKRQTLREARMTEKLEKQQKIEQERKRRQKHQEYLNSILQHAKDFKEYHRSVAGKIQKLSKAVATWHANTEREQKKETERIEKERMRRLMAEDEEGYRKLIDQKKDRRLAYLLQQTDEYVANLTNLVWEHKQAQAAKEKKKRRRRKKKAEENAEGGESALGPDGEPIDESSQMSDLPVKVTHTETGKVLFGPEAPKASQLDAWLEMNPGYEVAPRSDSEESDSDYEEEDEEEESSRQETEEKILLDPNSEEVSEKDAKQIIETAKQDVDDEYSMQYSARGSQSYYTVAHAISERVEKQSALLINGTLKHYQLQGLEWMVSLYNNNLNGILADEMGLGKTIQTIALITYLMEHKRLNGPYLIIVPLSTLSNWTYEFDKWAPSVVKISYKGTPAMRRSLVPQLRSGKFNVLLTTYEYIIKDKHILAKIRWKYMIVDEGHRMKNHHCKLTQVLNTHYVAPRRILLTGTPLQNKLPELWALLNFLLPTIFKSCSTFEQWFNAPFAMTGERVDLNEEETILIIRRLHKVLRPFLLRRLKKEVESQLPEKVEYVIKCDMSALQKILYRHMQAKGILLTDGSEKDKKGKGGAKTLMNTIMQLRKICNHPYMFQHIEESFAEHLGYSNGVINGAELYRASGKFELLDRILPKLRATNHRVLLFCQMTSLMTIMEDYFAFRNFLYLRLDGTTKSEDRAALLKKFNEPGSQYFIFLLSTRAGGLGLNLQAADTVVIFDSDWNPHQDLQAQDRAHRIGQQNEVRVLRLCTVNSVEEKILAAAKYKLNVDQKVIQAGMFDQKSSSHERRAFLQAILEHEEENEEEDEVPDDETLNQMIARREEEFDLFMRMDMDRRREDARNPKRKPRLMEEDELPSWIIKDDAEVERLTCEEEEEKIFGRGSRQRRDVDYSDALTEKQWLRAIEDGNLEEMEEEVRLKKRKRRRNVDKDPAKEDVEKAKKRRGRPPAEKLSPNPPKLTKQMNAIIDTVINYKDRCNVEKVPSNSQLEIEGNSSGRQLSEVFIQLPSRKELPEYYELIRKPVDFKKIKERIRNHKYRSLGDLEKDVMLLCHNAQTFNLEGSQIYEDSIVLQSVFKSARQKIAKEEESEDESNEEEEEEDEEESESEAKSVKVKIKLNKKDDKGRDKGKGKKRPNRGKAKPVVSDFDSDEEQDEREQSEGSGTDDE
Sequence of SMARCA4 (P51532 whole entry): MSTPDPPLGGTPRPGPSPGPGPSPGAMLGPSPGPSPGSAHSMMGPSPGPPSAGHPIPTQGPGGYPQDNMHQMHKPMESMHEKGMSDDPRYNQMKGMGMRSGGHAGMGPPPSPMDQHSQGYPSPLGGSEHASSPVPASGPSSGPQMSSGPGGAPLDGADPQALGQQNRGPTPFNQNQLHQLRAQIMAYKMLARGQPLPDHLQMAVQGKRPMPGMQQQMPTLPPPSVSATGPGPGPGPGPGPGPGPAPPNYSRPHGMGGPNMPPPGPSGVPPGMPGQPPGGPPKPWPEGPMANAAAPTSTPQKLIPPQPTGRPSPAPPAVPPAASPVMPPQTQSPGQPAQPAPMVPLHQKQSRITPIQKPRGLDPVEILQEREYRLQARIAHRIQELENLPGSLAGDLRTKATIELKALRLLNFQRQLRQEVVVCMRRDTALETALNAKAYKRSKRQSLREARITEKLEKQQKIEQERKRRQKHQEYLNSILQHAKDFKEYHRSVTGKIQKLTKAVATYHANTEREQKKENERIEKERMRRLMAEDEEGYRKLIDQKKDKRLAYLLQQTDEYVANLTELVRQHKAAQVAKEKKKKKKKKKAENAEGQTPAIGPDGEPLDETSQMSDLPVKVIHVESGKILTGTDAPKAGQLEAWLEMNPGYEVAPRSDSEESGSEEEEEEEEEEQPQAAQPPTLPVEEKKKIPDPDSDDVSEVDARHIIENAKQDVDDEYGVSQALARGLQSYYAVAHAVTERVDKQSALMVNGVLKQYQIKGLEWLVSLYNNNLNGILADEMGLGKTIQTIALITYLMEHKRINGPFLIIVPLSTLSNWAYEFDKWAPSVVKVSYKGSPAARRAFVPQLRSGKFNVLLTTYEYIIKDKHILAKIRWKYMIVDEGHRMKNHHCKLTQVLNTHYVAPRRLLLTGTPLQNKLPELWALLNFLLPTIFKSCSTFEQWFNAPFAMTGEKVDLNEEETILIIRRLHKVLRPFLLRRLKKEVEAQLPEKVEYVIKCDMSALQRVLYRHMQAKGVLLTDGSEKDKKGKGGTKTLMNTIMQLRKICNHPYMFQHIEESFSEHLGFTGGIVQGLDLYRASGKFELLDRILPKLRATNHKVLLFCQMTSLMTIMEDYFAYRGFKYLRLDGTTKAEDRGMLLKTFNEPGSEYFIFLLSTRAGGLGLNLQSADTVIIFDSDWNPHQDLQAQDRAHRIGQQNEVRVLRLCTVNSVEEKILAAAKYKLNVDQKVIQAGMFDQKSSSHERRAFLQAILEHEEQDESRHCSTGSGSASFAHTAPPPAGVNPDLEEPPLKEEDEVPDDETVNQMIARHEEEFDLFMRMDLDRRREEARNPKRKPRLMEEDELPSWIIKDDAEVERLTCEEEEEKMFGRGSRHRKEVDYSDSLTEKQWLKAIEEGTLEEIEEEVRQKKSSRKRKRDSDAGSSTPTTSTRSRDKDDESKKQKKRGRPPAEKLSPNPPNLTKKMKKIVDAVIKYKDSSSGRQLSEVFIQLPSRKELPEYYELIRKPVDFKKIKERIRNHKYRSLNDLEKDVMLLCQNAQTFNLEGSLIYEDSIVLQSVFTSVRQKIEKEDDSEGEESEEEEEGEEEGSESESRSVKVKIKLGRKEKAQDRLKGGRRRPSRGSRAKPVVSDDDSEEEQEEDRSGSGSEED

As to `Cc1ncsc1-c1ccc([C@H](C)NC(=O)[C@@H]2C[C@@H](O)CN2C(=O)[C@H](C2CCN(C(=O)[C@H]3CC[C@H](CN4CCC(c5ccc6c(c5)-n5c(nc(=O)c7c(Br)cccc75)C65CCCCC5)CC4)CC3)CC2)n2cc(C3CC3)nn2)cc1` [Compound A132, (2S,4R)-1-((S)-2-(1-((1r,4S)-4-((4-(4′-bromo-5′-oxo-5′H-spiro[cyclohexane-1,7′-indolo[1,2-a]quinazolin]-10′-yl)piperidin-1-yl)methyl)cyclohexane-1-carbonyl)piperidin-4-yl)-2-(4-cyclopropyl-1H-1,2,3-triazol-1-yl)acetyl)-4-hydroxy-N—((S)-1-(4-(4-methylthiazol-5-yl)phenyl)ethyl)pyrrolidine-2-carboxamide], the figures for the DC50 on SMARCA4 (setting [1]) and on SMARCA2 (setting [3]) were above 1 µM and below 0.01 µM, respectively. For the same compound, the Dmax on SMARCA4 (setting [2]) is below 50%; at SMARCA2 (setting [3]) it was above 90%.
In the same order, the values of `Cc1ncccc1-c1ccc([C@H](CN2CCOCC2)NC(=O)[C@@H]2C[C@@H](O)CN2C(=O)[C@@H](n2cc([C@H]3CC[C@H](CN4CCC(c5ccc6c(c5)-n5c(nc(=O)c7c(Cl)cccc75)C65CCCCC5)CC4)CC3)nn2)C(C)(C)C)cc1` [Compound A174, (2S,4R)-1-((S)-2-(4-((1r,4S)-4-((4-(4′-chloro-5′-oxo-5′H-spiro[cyclohexane-1,7′-indolo[1,2-a]quinazolin]-10′-yl)piperidin-1-yl)methyl)cyclohexyl)-1H-1,2,3-triazol-1-yl)-3,3-dimethylbutanoyl)-4-hydroxy-N—((R)-1-(4-(2-methylpyridin-3-yl)phenyl)-2-morpholinoethyl)pyrrolidine-2-carboxamide] are above 1 µM, below 0.01 µM, below 50% and above 90%.
Consider `Cc1ncsc1-c1ccc([C@H](CN2CCC(F)(F)CC2)NC(=O)[C@@H]2C[C@@H](O)CN2C(=O)[C@@H](n2cc([C@H]3CC[C@H](CN4CCC(c5ccc6c(c5)-n5c(nc(=O)c7c(Cl)cccc75)C65CCCCC5)CC4)CC3)nn2)C(C)(C)C)cc1` [Compound A75, (2S,4R)-1-((S)-2-(4-((1r,4S)-4-((4-(4′-chloro-5′-oxo-5′H-spiro[cyclohexane-1,7′-indolo[1,2-a]quinazolin]-10′-yl)piperidin-1-yl)methyl)cyclohexyl)-1H-1,2,3-triazol-1-yl)-3,3-dimethylbutanoyl)-N—((R)-2-(4,4-difluoropiperidin-1-yl)-1-(4-(4-methylthiazol-5-yl)phenyl)ethyl)-4-hydroxypyrrolidine-2-carboxamide], for which the DC50 at SMARCA4 (setting [1]) is above 1 µM; at SMARCA2 (setting [3]), below 0.1 µM. The maximal degradation (Dmax) was below 50% on SMARCA4 (Hela SMARCA4-HiBiT cells, 24 hours treatment, read-out: SMARC A4 Hela HiBit Dmax(%)) and above 90% on SMARCA2 (setting [3]).
Regarding `COC(=O)C1CN(C[C@H](NC(=O)[C@@H]2C[C@@H](O)CN2C(=O)[C@@H](n2cc([C@H]3CC[C@H](CN4CCC(c5ccc6c(c5)-n5c(nc(=O)c7c(Cl)cccc75)C65CCCCC5)CC4)CC3)nn2)C(C)(C)C)c2ccc(-c3scnc3C)cc2)C1` [Compound A154, methyl 1-((R)-2-((2S,4R)-1-((S)-2-(4-((1r,4S)-4-((4-(4′-chloro-5′-oxo-5′H-spiro[cyclohexane-1,7′-indolo[1,2-a]quinazolin]-10′-yl)piperidin-1-yl)methyl)cyclohexyl)-1H-1,2,3-triazol-1-yl)-3,3-dimethylbutanoyl)-4-hydroxypyrrolidine-2-carboxamido)-2-(4-(4-methylthiazol-5-yl)phenyl)ethyl) azetidine-3-carboxylate], the DC50 on SMARCA4 (setting [1]) was above 1 µM; on SMARCA2 (setting [3]) it was below 0.01 µM. The Dmax on SMARCA4 (setting [2]) was below 50%; on SMARCA2 (setting [3]), above 90%.
For `Cc1ncsc1-c1ccc([C@H](C)NC(=O)[C@@H]2C[C@@H](O)CN2C(=O)[C@@H](NC(=O)CCCN2CCC(c3ccc4c(c3)C3(CCCCC3)c3nc(=O)c5c(Cl)cccc5n3-4)CC2)C(C)(C)C)cc1` [Compound A7, (2S,4R)-1-((S)-2-(4-(4-(4′-chloro-5′-oxo-5′H-spiro[cyclohexane-1,7′-indolo[1,2-a]quinazolin]-9′-yl)piperidin-1-yl)butanamido)-3,3-dimethylbutanoyl)-4-hydroxy-N—((S)-1-(4-(4-methylthiazol-5-yl)phenyl)ethyl) pyrrolidine-2-carboxamide], the Dmax was below 50% on SMARCA4 (HeLa, read-out: SMARC A4 Hela HiBit Dmax(%)) and 70 to 90% at SMARCA2 (HeLa). For the same compound, on SMARCA4 (setting [1]), the “SMARC A4 Hela HiBit DC50(nM)” value is given as “No fit”. In addition, the DC50 at SMARCA2 (setting [3]) fell in the range of 0.1 to 0.5 µM.
In the case of `Cc1nc(C)c(-c2ccc([C@H](CN3CCOCC3)NC(=O)[C@@H]3C[C@@H](O)CN3C(=O)[C@@H](n3cc([C@H]4CC[C@H](CN5CCC(c6ccc7c(c6)-n6c(nc(=O)c8c(Cl)cccc86)C76CCCCC6)CC5)CC4)nn3)C(C)(C)C)cc2)s1` [Compound A161, (2S,4R)-1-((S)-2-(4-((1r,4S)-4-((4-(4′-chloro-5′-oxo-5′H-spiro[cyclohexane-1,7′-indolo[1,2-a]quinazolin]-10′-yl)piperidin-1-yl)methyl)cyclohexyl)-1H-1,2,3-triazol-1-yl)-3,3-dimethylbutanoyl)-N—((R)-1-(4-(2,4-dimethylthiazol-5-yl)phenyl)-2-morpholinoethyl)-4-hydroxypyrrolidine-2-carboxamide], the DC50 is 0.1 to 1 µM on SMARCA4 (setting [1]) and below 0.01 µM on SMARCA2 (setting [3]). The maximal degradation (Dmax) was 50 to 69% at SMARCA4 (setting [2]) and above 90% at SMARCA2 (setting [3]).
Take `Cc1ncsc1-c1ccc([C@@H](NC(=O)[C@@H]2C[C@@H](O)CN2C(=O)[C@@H](n2cc(C3CC3)nn2)C(C)(C)C)C(=O)N2CCC3(CCC(CN4CCC(c5ccc6c(c5)-n5c(nc(=O)c7c(Br)cccc75)C65CCCCC5)CC4)CC3)CC2)cc1` [Compound A137, (2S,4R)—N—((R)-2-(9-((4-(4′-bromo-5′-oxo-5′H-spiro[cyclohexane-1,7′-indolo[1,2-a]quinazolin]-10′-yl)piperidin-1-yl)methyl)-3-azaspiro[5.5]undecan-3-yl)-1-(4-(4-methylthiazol-5-yl)phenyl)-2-oxoethyl)-1-((S)-2-(4-cyclopropyl-1H-1,2,3-triazol-1-yl)-3,3-dimethylbutanoyl)-4-hydroxypyrrolidine-2-carboxamide]: the DC50 at SMARCA4 (setting [1]) and on SMARCA2 (setting [3]) was below 0.01 µM throughout. Further, the figures for the Dmax on SMARCA4 (setting [2]) and on SMARCA2 (setting [3]) were 70 to 90% and above 90%, respectively.
`Cc1ncsc1-c1ccc([C@H](CN2CCOCC2)NC(=O)[C@@H]2C[C@@H](O)CN2C(=O)[C@H](C2CCCCC2)n2cc([C@H]3CC[C@H](CN4CCC(c5ccc6c(c5)-n5c(nc(=O)c7c(Cl)cccc75)C65CCCCC5)CC4)CC3)nn2)cc1` [Compound A122, (2S,4R)-1-((S)-2-(4-((1r,4S)-4-((4-(4′-chloro-5′-oxo-5′H-spiro[cyclohexane-1,7′-indolo[1,2-a]quinazolin]-10′-yl)piperidin-1-yl)methyl)cyclohexyl)-1H-1,2,3-triazol-1-yl)-2-cyclohexylacetyl)-4-hydroxy-N—((R)-1-(4-(4-methylthiazol-5-yl)phenyl)-2-morpholinoethyl)pyrrolidine-2-carboxamide]: the “SMARC A4 Hela HiBit DC50(nM)” value on SMARCA4 (setting [1]) was “No fit”. The Dmax on SMARCA4 (setting [2]) was 50 to 69%; on SMARCA2 (setting [3]), above 90%. The DC50 on SMARCA2 (setting [3]) is below 0.01 µM.
Regarding `Cc1ncsc1-c1ccc([C@H](C)NC(=O)[C@@H]2C[C@@H](O)CN2C(=O)[C@@H](n2cc(C3(CCN4CCC(c5ccc6c(c5)-n5c(nc(=O)c7c(Br)cccc75)C65CCCCC5)CC4)CC3)nn2)C(C)(C)C)cc1` [Compound A65, (2S,4R)-1-((S)-2-(4-(1-(2-(4-(4′-bromo-5′-oxo-5′H-spiro[cyclohexane-1,7′-indolo[1,2-a]quinazolin]-10′-yl)piperidin-1-yl)ethyl)cyclopropyl)-1H-1,2,3-triazol-1-yl)-3,3-dimethylbutanoyl)-4-hydroxy-N—((S)-1-(4-(4-methylthiazol-5-yl)phenyl)ethyl)pyrrolidine-2-carboxamide], the “SMARC A4 Hela HiBit Dmax(%)” value on SMARCA4 (setting [1]) is on record as “A (A (>90% degradation))”. In addition, the DC50 on SMARCA4 and at SMARCA2 was below 0.1 µM each time. For the same compound, the “SMARC A2 Hela HiBit Dmax (%)” value at SMARCA2 (setting [3]) was “A (A (>90% degradation))”.
